Assay results as given in ChEMBL document CHEMBL5260849, “Current advances in Vibrio harveyi quorum sensing as drug discovery targets” (Eur J Med Chem, 2020).
Values after ≈ are worked out from the molar mass of the structure shown.

How the values were obtained:
[1] = test system: Vibrio harveyi; assay: Antibiofilm activity against Vibrio harveyi BB170 assessed as inhibition of biofilm formation at 200 uM by Crystal violet biofilm assay; format: functional
[2] = test system: Vibrio harveyi; assay: Antibacterial activity against Vibrio harveyi MTCC 3438 assessed as bacterial growth inhibition incubated for 24 hrs by broth microdilution assay; format: functional
[3] = Inhibition of quorum-sensing system in Vibrio harveyi assessed as inhibition of bioluminescence at 20 uM by bioluminescence assay
[4] = test system: Vibrio harveyi; assay: Antibacterial activity against Vibrio harveyi infected […] franciscana assessed as increase in survival rate at 20 uM and measured after 60 hrs by light microscopy; format: functional
[5] = test system: Vibrio harveyi; assay: Antibiofilm activity against Vibrio harveyi MTCC 3438 assessed as inhibition of biofilm formation at 250 ug/ml for 16 hrs by crystal violet staining based spectrophotometric assay; format: functional
[6] = test system: Vibrio harveyi; assay: Inhibition of biofilm formation in Vibrio harveyi MTCC 3438 assessed as reduction in exopolysaccharides production at 250 ug/ml for 24 hrs by spectrophotometric assay; format: functional
[7] = test system: Vibrio harveyi; assay: Antibacterial activity against Vibrio harveyi MTCC 3438 assessed as reduction in cell surface hydrophobicity at 250 ug/ml for 10 mins by BATH assay; format: functional; settings: MTCC 3438, 10 min
[8] = test system: Vibrio harveyi; assay: Antibacterial activity against Vibrio harveyi MTCC 3438 infected Litopenaeus vannamei larvae assessed as increase in survival rate at 250 ug/ml and measured upto 96 hrs; format: functional
[9] = Inhibition of quorum sensing system in Vibrio harveyi MTCC 3438 assessed fold decrease in luxS expression at 250 ug/ml by qPCR assay; settings: dose 250.0 µg/ml
[10] = Inhibition of quorum sensing system in Vibrio harveyi MTCC 3438 assessed fold decrease in luxP expression at 250 ug/ml by qPCR assay; settings: dose 250.0 µg/ml
[11] = Inhibition of quorum sensing system in Vibrio harveyi MTCC 3438 assessed fold decrease in luxQ expression at 250 ug/ml by qPCR assay; settings: dose 250.0 µg/ml
[12] = Inhibition of quorum sensing system in Vibrio harveyi MTCC 3438 assessed fold decrease in luxO expression at 250 ug/ml by qPCR assay; settings: dose 250.0 µg/ml
[13] = Inhibition of quorum sensing system in Vibrio harveyi MTCC 3438 assessed fold decrease in luxR expression at 250 ug/ml by qPCR assay; settings: dose 250.0 µg/ml
[14] = Inhibition of quorum-sensing system in Vibrio harveyi BB152 assessed as inhibition of QS-mediated bioluminescence at 0.02 to 200 uM incubated for 18 hrs by Luminescence assay; settings: dose 0.02-200 µM
[15] = Inhibition of quorum-sensing system in Vibrio harveyi BB170 assessed as inhibition of QS-mediated bioluminescence at 0.02 to 200 uM incubated for 18 hrs by Luminescence assay; settings: dose 0.02-200 µM
[16] = Inhibition of quorum-sensing system in Vibrio harveyi MM77 assessed as inhibition of QS-mediated bioluminescence at 0.02 to 200 uM incubated for 18 hrs by Luminescence assay; settings: dose 0.02-200 µM
[17] = test system: Vibrio harveyi; assay: Antimicrobial activity against Vibrio harveyi BB120 assessed as decrease in swimming motility at 200 ug/ml incubated for 15 hrs by agar plate reader analysis; format: functional; set-up: scale not given: the % may be the effect or the level left; settings: dose 200 µg/ml
[18] = test system: Vibrio harveyi; assay: Antimicrobial activity against Vibrio harveyi BB152 assessed as decrease in swimming motility at 200 ug/ml incubated for 15 hrs by agar plate reader analysis; format: functional; set-up: scale not given: the % may be the effect or the level left; settings: dose 200 µg/ml
[19] = test system: Vibrio harveyi; assay: Antimicrobial activity against Vibrio harveyi MM30 assessed as decrease in swimming motility at 200 ug/ml incubated for 15 hrs by agar plate reader analysis; format: functional; set-up: scale not given: the % may be the effect or the level left; settings: dose 200 µg/ml
[20] = test system: Vibrio harveyi; assay: Inhibition of biofilm formation in Vibrio harveyi BB152 at 200 ug/ml for 24 hrs by crystal violet assay; format: functional
[21] = test system: Vibrio harveyi; assay: Inhibition of biofilm formation in Vibrio harveyi MM77 assessed as inhibition of exopolysaccharides production at 200 uM incubated for 24 hrs by Fluorescence assay; format: functional

CC(=O)C(=O)C(F)CO (stereo unspecified)
inhibition at 200 µM [1]: 90%

O=C(O)[C@@H]1[C@H](C(=O)O)[C@@H]2C=C[C@H]1C2
MIC [2]: 8 µg/mL (≈ 43.9 µM)

O=S(=O)(c1ccc(Br)s1)n1cccn1
inhibition [3]: 100% | survival at 20 µM [4]: 85.5%

Cc1cc(C(C)(C)C)c(O)c(C(C)(C)C)c1 [BUTYLATED HYDROXYTOLUENE]
inhibition at 250 µg/mL [5]: 80% | inhibition at 250 µg/mL [6]: 65% | inhibition at 250 µg/mL [7]: 82% | survival at 250 µg/mL [8]: 75% | fold change (FC) [9]: 0.9 | fold change (FC) [10]: 0.7 | fold change (FC) [11]: 0.5 | fold change (FC) [12]: 0.1 | fold change (FC) [13]: 1.9

CCCCCCC(C)(C)c1cc(O)c2c(c1)OC(C)(C)[C@@H]1CC=C(CO)C[C@@H]21
inhibition [14]: 98% | inhibition [15]: 85% | inhibition [16]: 95% | Activity [17]: 80% | Activity [18]: 85% | Activity [19]: 95% | inhibition at 200 µg/mL [20]: 80% | inhibition at 200 µM [21]: 75%
